Activity calls are given as the source filed them. The rule behind the calls is not given here.
Experiments:
[1] = Inhibition of starch utilization system in Bacteroides dorei JRO3 assessed as increase in lag time at 0.1 to 10 uM up to 48 hrs in presence of potato starch by spectrophotometric analysis; settings: Phocaeicola dorei
[2] = Inhibition of starch utilizing system in Bacteroides dorei JRO1 assessed as microbial growth at 100 uM measured at 30 mins interval with 15 secs shaking for up to 48 hrs in presence of potato starch by spectrophotometric analysis relative to untreated control; set-up: scale not given: the % may be the effect or the level left; settings: Phocaeicola dorei
[3] = Inhibition of starch utilizing system in Bacteroides dorei JRO3 assessed as microbial growth at 100 uM measured at 30 mins interval with 15 secs shaking for up to 48 hrs in presence of potato starch by spectrophotometric analysis relative to untreated control; set-up: scale not given: the % may be the effect or the level left; settings: Phocaeicola dorei
[4] = Inhibition of starch utilization system in Bacteroides dorei JRO3 assessed as bacterial growth at 1 uM after 13.5 hrs in presence of pullulan by spectrophotometric analysis relative to untreated control; set-up: scale not given: the % may be the effect or the level left; settings: Phocaeicola dorei
Phocaeicola dorei [5] = assay: Effect on growth of Bacteroides dorei JRO3 assessed as microbial growth at 100 uM measured at 30 mins interval with 15 secs shaking for up to 48 hrs in presence of glucose by spectrophotometric analysis relative to untreated control; assay type: organism-based; settings: in vivo
Phocaeicola dorei [6] = assay: Effect on growth of Bacteroides dorei JRO1 assessed as microbial growth at 100 uM measured at 30 mins interval with 15 secs shaking for up to 48 hrs in presence of glucose by spectrophotometric analysis relative to untreated control; assay type: organism-based; settings: in vivo
[7] = Inhibition of starch utilization system in Bacteroides dorei JRO3 assessed as reduction in bacterial growth at 0.1 uM after 14 hrs in presence of potato starch by spectrophotometric analysis; settings: Phocaeicola dorei
[8] = Inhibition of starch utilization system in Bacteroides dorei JRO3 assessed as increase in lag time at 5 uM up to 48 hrs in presence of pullulan by spectrophotometric analysis; settings: Phocaeicola dorei
[9] = Inhibition of starch utilizing system in Bacteroides dorei JRO4 assessed as microbial growth at 100 uM measured at 30 mins interval with 15 secs shaking for up to 48 hrs in presence of pullulan by spectrophotometric analysis relative to untreated control; set-up: scale not given: the % may be the effect or the level left; settings: Phocaeicola dorei
[10] = Inhibition of starch utilization system in Bacteroides dorei JRO3 assessed as reduction in bacterial growth at 0.1 uM after 13.5 hrs in presence of pullulan by spectrophotometric analysis; settings: Phocaeicola dorei
[11] = Inhibition of starch utilization system in Bacteroides dorei JRO3 assessed as bacterial growth at 0.5 uM after 13.5 hrs in presence of pullulan by spectrophotometric analysis relative to untreated control; set-up: scale not given: the % may be the effect or the level left; settings: Phocaeicola dorei
[12] = Inhibition of starch utilizing system in Bacteroides dorei JRO4 assessed as microbial growth at 100 uM measured at 30 mins interval with 15 secs shaking for up to 48 hrs in presence of potato starch by spectrophotometric analysis relative to untreated control; set-up: scale not given: the % may be the effect or the level left; settings: Phocaeicola dorei
[13] = Inhibition of starch utilization system in Bacteroides dorei JRO3 assessed as bacterial growth at 5 uM after 13.5 hrs in presence of pullulan by spectrophotometric analysis relative to untreated control; set-up: scale not given: the % may be the effect or the level left; settings: Phocaeicola dorei
[14] = Inhibition of starch utilization system in Bacteroides dorei JRO3 assessed as increase in doubling time at 10 uM in presence of pullulan by spectrophotometric analysis; settings: Phocaeicola dorei
Phocaeicola dorei [15] = assay: Effect on growth of Bacteroides dorei JRO2 assessed as microbial growth at 100 uM measured at 30 mins interval with 15 secs shaking for up to 48 hrs in presence of glucose by spectrophotometric analysis relative to untreated control; assay type: organism-based; settings: in vivo
[16] = Inhibition of starch utilizing system in Bacteroides dorei JRO2 assessed as microbial growth at 100 uM measured at 30 mins interval with 15 secs shaking for up to 48 hrs in presence of pullulan by spectrophotometric analysis relative to untreated control; set-up: scale not given: the % may be the effect or the level left; settings: Phocaeicola dorei
[17] = Inhibition of starch utilization system in Bacteroides dorei JRO3 assessed as bacterial growth at 1 uM after 14 hrs in presence of potato starch by spectrophotometric analysis relative to untreated control; set-up: scale not given: the % may be the effect or the level left; settings: Phocaeicola dorei
Phocaeicola dorei [18] = assay: Effect on growth of Bacteroides dorei JRO1 assessed as microbial growth at 100 uM measured at 30 mins interval with 15 secs shaking for up to 48 hrs in presence of maltose by spectrophotometric analysis relative to untreated control; assay type: organism-based; settings: in vivo
Phocaeicola dorei [19] = assay: Effect on growth of Bacteroides dorei JRO4 assessed as microbial growth at 100 uM measured at 30 mins interval with 15 secs shaking for up to 48 hrs in presence of glucose by spectrophotometric analysis relative to untreated control; assay type: organism-based; settings: in vivo
[20] = Inhibition of starch utilization system in Bacteroides dorei JRO3 assessed as bacterial growth at 5 uM after 14 hrs in presence of potato starch by spectrophotometric analysis relative to untreated control; set-up: scale not given: the % may be the effect or the level left; settings: Phocaeicola dorei
[21] = Inhibition of starch utilizing system in Bacteroides dorei JRO2 assessed as microbial growth at 100 uM measured at 30 mins interval with 15 secs shaking for up to 48 hrs in presence of potato starch by spectrophotometric analysis relative to untreated control; set-up: scale not given: the % may be the effect or the level left; settings: Phocaeicola dorei
[22] = Inhibition of starch utilizing system in Bacteroides dorei JRO3 assessed as microbial growth at 100 uM measured at 30 mins interval with 15 secs shaking for up to 48 hrs in presence of pullulan by spectrophotometric analysis relative to untreated control; set-up: scale not given: the % may be the effect or the level left; settings: Phocaeicola dorei
Phocaeicola dorei [23] = assay: Effect on growth of Bacteroides dorei JRO2 assessed as microbial growth at 100 uM measured at 30 mins interval with 15 secs shaking for up to 48 hrs in presence of maltose by spectrophotometric analysis relative to untreated control; assay type: organism-based; settings: in vivo
[24] = Inhibition of starch utilization system in Bacteroides dorei JRO3 assessed as bacterial growth at 0.5 uM after 14 hrs in presence of potato starch by spectrophotometric analysis relative to untreated control; set-up: scale not given: the % may be the effect or the level left; settings: Phocaeicola dorei
Phocaeicola dorei [25] = assay: Effect on growth of Bacteroides dorei JRO3 assessed as microbial growth at 100 uM measured at 30 mins interval with 15 secs shaking for up to 48 hrs in presence of maltose by spectrophotometric analysis relative to untreated control; assay type: organism-based; settings: in vivo
Phocaeicola dorei [26] = assay: Effect on growth of Bacteroides dorei JRO4 assessed as microbial growth at 100 uM measured at 30 mins interval with 15 secs shaking for up to 48 hrs in presence of maltose by spectrophotometric analysis relative to untreated control; assay type: organism-based; settings: in vivo
[27] = Inhibition of starch utilizing system in Bacteroides dorei JRO1 assessed as microbial growth at 100 uM measured at 30 mins interval with 15 secs shaking for up to 48 hrs in presence of pullulan by spectrophotometric analysis relative to untreated control; set-up: scale not given: the % may be the effect or the level left; settings: Phocaeicola dorei
[28] = Inhibition of starch utilization system in Bacteroides dorei JRO3 assessed as increase in doubling time at 0.1 to 10 uM in presence of potato by spectrophotometric analysis; settings: Phocaeicola dorei

SMILES: C[C@H]1O[C@H](O[C@H]2[C@H](O)[C@@H](O)[C@@H](O[C@H]3[C@H](O)[C@@H](O)C(O)O[C@@H]3CO)O[C@@H]2CO)[C@H](O)[C@@H](O)[C@@H]1N[C@H]1C=C(CO)[C@@H](O)[C@H](O)[C@H]1O (stereo partly drawn) [ACARBOSE]
- inhibition [1]: inactive
- Activity [2]: 3.9%
- Activity [3]: 2.6%
- Activity [4]: 21.3%
- Activity (Phocaeicola dorei [5]): 118.7%
- Activity (Phocaeicola dorei [6]): 100.7%
- inhibition [7]: inactive
- inhibition [8]: Active
- Activity [9]: 4.8%
- inhibition [10]: inactive
- Activity [11]: 49.9%
- Activity [12]: 2.4%
- Activity [13]: 11.2%
- inhibition [14]: Active
- Activity (Phocaeicola dorei [15]): 100%
- Activity [16]: 10.1%
- Activity [17]: 28.2%
- Activity (Phocaeicola dorei [18]): 103%
- Activity (Phocaeicola dorei [19]): 105.8%
- Activity [20]: 6.6%
- Activity [21]: 3.7%
- Activity [22]: 10.4%
- Activity (Phocaeicola dorei [23]): 99.4%
- Activity [24]: 59.9%
- Activity (Phocaeicola dorei [25]): 123.3%
- Activity (Phocaeicola dorei [26]): 71.8%
- Activity [27]: 6.5%
- inhibition [28]: Active
